Results taken from PubChem BioAssay AID1259408 (Genetic Toxicology Data Bank (GENE-TOX), 2018).
Activity calls are given as the source filed them. How the calls were made is not given here.

Tested on: GENE-TOX genotoxicity assays, various organisms and cells
Assay: GENE-TOX mutagenicity studies
Conditions: for call: Assay Type: In vivo carcinogenicity studies
[1] = Species/Cell Type: Escherichia coli polA (W3119 vs P3478), Assay Type: Rec-assay, DNA effects (bacterial DNA repair), Assay Code: RE1+, Evaluation Type: Evaluation A (Pre-1980)
[2] = Species/Cell Type: Salmonella typhimurium (one or more of the five standard strains: TA98, TA100, TA1535, TA1537, and TA1538), Assay Type: Histidine reverse gene mutation, Ames assay, Assay Code: SAL+, Evaluation Type: Evaluation A (Pre-1980)
[3] = Species/Cell Type: Nonhuman, Assay Type: Sister-chromatid exchange (SCE) in vitro, Assay Code: SC2T, Evaluation Type: Evaluation B (Post-1980)
[4] = Species/Cell Type: Human lymphocytes, Assay Type: Sister-chromatid exchange (SCE) in vitro, Assay Code: SCLT, Evaluation Type: Evaluation B (Post-1980)
[5] = Species/Cell Type: Human lymphocytes, Assay Type: Sister-chromatid exchange (SCE) in vivo, Assay Code: SCY+, Evaluation Type: Evaluation B (Post-1980)
[6] = Species/Cell Type: Human, Assay Type: Sister-chromatid exchange (SCE) in vitro, Assay Code: SC1T, Evaluation Type: Evaluation B (Post-1980)
[7] = Species/Cell Type: Rodents, Sex: Male, Assay Type: Dominant lethal test, Assay Code: DLTT, Evaluation Type: Evaluation A (Pre-1980)
[8] = Species/Cell Type: Escherichia coli polA (W3110 vs P3478), Assay Type: Rec-assay, DNA effects (bacterial DNA repair), Assay Code: RE2-, Evaluation Type: Evaluation A (Pre-1980)
[9] = Species/Cell Type: Escherichia coli polA (W3119 vs P3478), Assay Type: Rec-assay, DNA effects (bacterial DNA repair), Assay Code: RE1T, Evaluation Type: Evaluation A (Pre-1980)
[10] = Species/Cell Type: Nonhuman, Assay Type: Sister-chromatid exchange (SCE) in vitro, Assay Code: SC2+D, Dose Response: With dose response, Evaluation Type: Evaluation B (Post-1980)
[11] = Species/Cell Type: Saccharomyces cerevisiae, Assay Type: Mitotic recombination or gene conversion, Assay Code: YEC+, Evaluation Type: Evaluation A (Pre-1980)
[12] = Species/Cell Type: Nonhuman, Assay Code: CCGT, Evaluation Type: Evaluation A (Pre-1980)
[13] = Species/Cell Type: Salmonella typhimurium (one or more of the five standard strains: TA98, TA100, TA1535, TA1537, and TA1538), Assay Type: Histidine reverse gene mutation, Ames assay, Assay Code: SAL-, Evaluation Type: Evaluation A (Pre-1980)
[14] = Species/Cell Type: Salmonella typhimurium, Assay Type: Forward and reverse gene mutation, host-mediated assay, Assay Code: HMA-, Evaluation Type: Evaluation A (Pre-1980)
[15] = Species/Cell Type: Syrian hamster embryo (SHE) cells, Assay Type: Cell transformation, clonal assay, Assay Code: CTC-, Evaluation Type: Evaluation A (Pre-1980)

**Q.** Which results are given for `OCC1CO1` (configuration not stated)?
**A.** mutagenic call [1]: active; positive; mutagenic call (Species/Cell Type: Human diploid fibroblasts, Assay Type: Unscheduled DNA synthesis (UDS) in vitro, DNA effects, Assay Code: UDH-, Evaluation Type: Evaluation A (Pre-1980)): inactive; negative; mutagenic call (Species/Cell Type: Human lymphocytes, Assay Type: Sister-chromatid exchange (SCE) in vitro, Assay Code: SCL+D, Dose Response: With dose response, Evaluation Type: Evaluation B (Post-1980)): active; positive; mutagenic call (Species/Cell Type: Human, Assay Type: Sister-chromatid exchange (SCE) in vitro, Assay Code: SC1+D, Dose Response: With dose response, Evaluation Type: Evaluation B (Post-1980)): active; positive; mutagenic call (Species/Cell Type: Neurospora crassa, Assay Type: Reverse gene mutation, Assay Code: NER+, Evaluation Type: Evaluation A (Pre-1980)): active; positive; mutagenic call (Species/Cell Type: Saccharomyces cerevisiae, Assay Type: Mitotic recombination or gene conversion, Assay Code: YEH+, Evaluation Type: Evaluation A (Pre-1980)): active; positive; mutagenic call [2]: active; positive; mutagenic call (Species/Cell Type: Schizosaccharomyces pombe, Assay Type: Reverse gene mutation, Assay Code: YEZ+, Evaluation Type: Evaluation A (Pre-1980)): active; positive; mutagenic call (Species/Cell Type: Syrian hamster embryo (SHE) cells, Assay Type: Cell transformation, clonal assay, Assay Code: CTCT, Evaluation Type: Evaluation A (Pre-1980)): no conclusion

**Q.** Which mutagenic call [3] does the source give for `C=CCCCCCC=CCC#CC#CC=CC` here?
**A.** no conclusion

**Q.** For `CCN(CCCC(=O)O)N=O`, which mutagenic call [2] is on record?
**A.** active; positive

**Q.** Which mutagenic call (Species/Cell Type: Drosophila melanogaster, Assay Type: Aneuploidy, partial sex chromosome loss, chromosome aberrations, Assay Code: DAP+M, Evaluation Type: Evaluation A (Pre-1980)) does the source give for `Cn1cnc([N+](=O)[O-])c1Sc1ncnc2nc[nH]c12` here?
**A.** active; positive

**Q.** What about the mutagenic call (Species/Cell Type: Drosophila melanogaster, Assay Type: Aneuploidy, sex chromosome gain, chromosome aberrations, Assay Code: DAG+M, Evaluation Type: Evaluation A (Pre-1980)) of the same compound?
**A.** active; positive

**Q.** What about the mutagenic call (Species/Cell Type: Drosophila melanogaster, Assay Type: Aneuploidy, whole sex chromosome loss, chromosome aberrations, Assay Code: DACT, Evaluation Type: Evaluation A (Pre-1980)) of the same compound?
**A.** no conclusion

**Q.** And the mutagenic call [4]?
**A.** no conclusion

**Q.** What about the mutagenic call [5] of the same compound?
**A.** active; positive

**Q.** What about the mutagenic call [6] of the same compound?
**A.** no conclusion

**Q.** What about the mutagenic call (Species/Cell Type: Mammalian polychromatic erythrocytes, Assay Type: Micronucleus test, chromosome aberrations, Assay Code: MNT+, Evaluation Type: Evaluation A (Pre-1980)) of the same compound?
**A.** active; positive

**Q.** What about the mutagenic call (Species/Cell Type: Mouse, Sex: Male, Assay Type: Sperm morphology, Assay Code: SPI+, Evaluation Type: Evaluation A (Pre-1980)) of the same compound?
**A.** active; positive

**Q.** And the mutagenic call (Species/Cell Type: Neurospora crassa, Assay Type: Forward and reverse gene mutation, lethal mutation, host-mediated assay, Assay Code: HMD+, Evaluation Type: Evaluation A (Pre-1980))?
**A.** active; positive

**Q.** And the mutagenic call (Species/Cell Type: Neurospora crassa, Assay Type: Forward gene mutation, Assay Code: NEF+, Evaluation Type: Evaluation A (Pre-1980))?
**A.** active; positive

**Q.** What about the call (Species/Cell Type: Nonhuman, Assay Code: CCG+L, Evaluation Type: Evaluation A (Pre-1980)) of the same compound?
**A.** active; positive

**Q.** What about the mutagenic call (Species/Cell Type: Nonhuman, Assay Type: Sister-chromatid exchange (SCE) in vivo, Assay Code: SC3-, Evaluation Type: Evaluation B (Post-1980)) of the same compound?
**A.** inactive; negative

**Q.** And the mutagenic call [7]?
**A.** no conclusion

**Q.** And the mutagenic call [2]?
**A.** active; positive

**Q.** What does the source list for `CN(CCCCOC[C@H](N)C(=O)O)N=O`?
**A.** mutagenic call [8]: inactive; negative; mutagenic call [9]: no conclusion

**Q.** What does the source list for `COP(=O)(OC)O/C(C)=C/C(=O)N(C)C`?
**A.** mutagenic call [10]: active; positive; mutagenic call [11]: active; positive

**Q.** What does the source list for `CC(=O)[O][Hg][c]1ccccc1`?
**A.** mutagenic call (Species/Cell Type: Bacillus subtilis (H17 vs M45), Assay Type: Rec-assay, spot test, DNA effects (bacterial DNA repair), Assay Code: REW+, Evaluation Type: Evaluation A (Pre-1980)): active; positive; mutagenic call (Species/Cell Type: Drosophila melanogaster, Assay Type: Aneuploidy, sex chromosome gain, chromosome aberrations, Assay Code: DAG+F, Evaluation Type: Evaluation A (Pre-1980)): active; positive; mutagenic call (Species/Cell Type: Drosophila melanogaster, Assay Type: Aneuploidy, whole sex chromosome loss, chromosome aberrations, Assay Code: DAC+F, Evaluation Type: Evaluation A (Pre-1980)): active; positive

**Q.** What does the source list for `CS(C)=O`?
**A.** mutagenic call (Species/Cell Type: Aspergillus nidulans, Assay Type: Aneuploidy, chromosome aberrations, Assay Code: ASN+, Evaluation Type: Evaluation A (Pre-1980)): active; positive; mutagenic call (Species/Cell Type: Aspergillus nidulans, Assay Type: Mitotic recombination, Assay Code: ASGT, Evaluation Type: Evaluation A (Pre-1980)): no conclusion; mutagenic call (Species/Cell Type: Bacillus subtilis (H17 vs M45), Assay Type: Rec-assay, spot test, DNA effects (bacterial DNA repair), Assay Code: REWT, Evaluation Type: Evaluation A (Pre-1980)): no conclusion; mutagenic call (Species/Cell Type: Drosophila melanogaster, Assay Type: Aneuploidy, whole sex chromosome loss, chromosome aberrations, Assay Code: DAC-M, Evaluation Type: Evaluation A (Pre-1980)): inactive; negative; mutagenic call (Species/Cell Type: Drosophila melanogaster, Assay Type: Sex-linked recessive lethal gene mutation, Assay Code: SRL-, Evaluation Type: Evaluation A (Pre-1980)): inactive; negative; mutagenic call (Species/Cell Type: Drosophila melanogaster, Sex: Male, Assay Type: Heritable translocation test, chromosome aberrations, Assay Code: DHTT, Evaluation Type: Evaluation A (Pre-1980)): no conclusion; mutagenic call [8]: inactive; negative; mutagenic call [9]: no conclusion; mutagenic call (Species/Cell Type: Fischer rat embryo (RLV/1706) cells, Assay Type: Cell transformation, viral enhanced, Assay Code: CTR-, Evaluation Type: Evaluation A (Pre-1980)): inactive; negative; mutagenic call [4]: no conclusion; mutagenic call [6]: no conclusion; mutagenic call (Species/Cell Type: Mouse embryo (AKR/ME) cells, Assay Type: Cell transformation, Assay Code: CTK-, Evaluation Type: Evaluation A (Pre-1980)): inactive; negative; mutagenic call (Species/Cell Type: Neurospora crassa, Assay Type: Aneuploidy, chromosome aberrations, Assay Code: NEN-, Evaluation Type: Evaluation A (Pre-1980)): inactive; negative; call [12]: no conclusion; mutagenic call (Species/Cell Type: Nonhuman, Assay Type: Sister-chromatid exchange (SCE) in vitro, Assay Code: SC2-, Evaluation Type: Evaluation A (Pre-1980)): inactive; negative; mutagenic call (Species/Cell Type: Nonhuman, Assay Type: Sister-chromatid exchange (SCE) in vivo, Assay Code: SC3+, Evaluation Type: Evaluation B (Post-1980)): active; positive; mutagenic call [7]: no conclusion; mutagenic call [11]: active; positive; mutagenic call [13]: inactive; negative; mutagenic call [14]: inactive; negative; mutagenic call [15]: inactive; negative

**Q.** How did the mutagenic call (Species/Cell Type: Human, Sex: Male, Assay Type: Sperm morphology, Assay Code: SPH+, Evaluation Type: Evaluation A (Pre-1980)) turn out when `C#C[C@]1(O)CC[C@H]2[C@@H]3CCc4cc(OC)ccc4[C@H]3CC[C@@]21C` (tested in a mixture with another compound) was run?
**A.** active; positive

**Q.** With `CO[C@@]12[C@H](COC(N)=O)C3=C(C(=O)C(C)=C(N)C3=O)N1C[C@H]1[C@@H]2N1C` (some centres not stated) as the compound, how does the mutagenic call [10] read?
**A.** active; positive

**Q.** Which mutagenic call [1] does the source give for `Oc1cccc2cc3cccc(O)c3c(O)c12` here?
**A.** active; positive

**Q.** What about the mutagenic call (Species/Cell Type: Fischer rat embryo (RLV/1706) cells, Assay Type: Cell transformation, viral enhanced, Assay Code: CTR+, Evaluation Type: Evaluation A (Pre-1980)) of the same compound?
**A.** active; positive

**Q.** What about the mutagenic call (Species/Cell Type: Mammalian polychromatic erythrocytes, Assay Type: Micronucleus test, chromosome aberrations, Assay Code: MNT-, Evaluation Type: Evaluation B (Post-1980)) of the same compound?
**A.** inactive; negative

**Q.** What about the mutagenic call (Species/Cell Type: Mouse (BALB/c-3T3) cells, Assay Type: Cell transformation, Assay Code: CTB-, Evaluation Type: Evaluation A (Pre-1980)) of the same compound?
**A.** inactive; negative

**Q.** And the call [12]?
**A.** no conclusion

**Q.** What about the mutagenic call [13] of the same compound?
**A.** inactive; negative

**Q.** What about the mutagenic call [14] of the same compound?
**A.** inactive; negative

**Q.** And the mutagenic call [15]?
**A.** inactive; negative

**Q.** With `CC(C(=O)O)c1ccc(-c2ccccc2)c(F)c1` (configuration not stated) as the compound, how does the mutagenic call [5] read?
**A.** active; positive

**Q.** `O=c1ccc2ccccc2[nH]1` was tested. Which mutagenic call [13] did it give?
**A.** inactive; negative

**Q.** Which mutagenic call [3] does the source give for `COP(N)(=O)SC` (configuration not stated) here?
**A.** no conclusion

**Q.** For `CN(N=O)C(=O)Nc1ccccc1`, which mutagenic call [10] is on record?
**A.** active; positive
